Laboratory results published in patent US4395402A, “Analgesic agent” (Zaidan Hojin Biseibutsu Kagaku Kankyu Kai, priority 1980, dated 1983).

Key:
enkephalinase = molecular target: T1, enkephalinase (Rattus norvegicus, UniProt P07861); assay: Inhibitory activity against enkephalinase (Test 1); assay type: biochemical; details: for Inhibitory activity to enkephalinase ID50: partially purified enkephalinase from rat brain corpus striatum, substrate methionine-enkephaline, 37° C., 1 hour, HPLC of Tyr-Gly-Gly
T1 construct: homogenizing corpus striatum of rat brain and by partial purification of the brain homogenate; from tissue; host or cells: corpus striatum of rat brain
T1 sequence (P07861 2-750 limits assumed): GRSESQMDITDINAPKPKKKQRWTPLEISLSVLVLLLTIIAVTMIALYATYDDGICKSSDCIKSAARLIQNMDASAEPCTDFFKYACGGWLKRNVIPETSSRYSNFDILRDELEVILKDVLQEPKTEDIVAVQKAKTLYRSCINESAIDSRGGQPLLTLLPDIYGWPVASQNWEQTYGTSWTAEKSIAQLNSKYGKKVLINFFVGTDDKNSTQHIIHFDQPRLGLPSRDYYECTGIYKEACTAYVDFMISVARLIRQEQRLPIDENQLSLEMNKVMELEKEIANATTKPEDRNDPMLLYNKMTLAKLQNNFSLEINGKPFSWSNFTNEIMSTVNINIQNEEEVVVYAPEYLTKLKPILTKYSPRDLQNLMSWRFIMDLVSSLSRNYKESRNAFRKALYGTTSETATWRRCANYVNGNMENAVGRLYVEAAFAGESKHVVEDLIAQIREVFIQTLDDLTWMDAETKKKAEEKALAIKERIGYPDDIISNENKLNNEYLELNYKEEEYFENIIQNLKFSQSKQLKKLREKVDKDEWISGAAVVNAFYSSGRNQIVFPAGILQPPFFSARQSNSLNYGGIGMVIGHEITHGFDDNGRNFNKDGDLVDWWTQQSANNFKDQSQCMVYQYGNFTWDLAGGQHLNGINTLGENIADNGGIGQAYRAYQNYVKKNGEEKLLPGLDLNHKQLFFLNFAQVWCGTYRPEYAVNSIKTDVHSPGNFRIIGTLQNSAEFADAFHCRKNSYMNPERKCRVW
Method: To the solution of the test compound so prepared was added the enkephalinase, followed by incubation for five minutes at ambient temperature and further by addition of methionine-enkephaline as the substrate. The admixture so obtained was incubated at 37° C. for 1 hour and then subjected to a high-performance liquid chromatography in such a manner that the Tyr-Gly-GLy (a fragment of the methionine-enkephaline) formed by the enzymatic degradation of methionine-enkephaline was isolated in some fractions of the eluate and the quantity of Tyr-Gly-GLy was determined by an electro-chemically analysing detector.

Wistar rats = assay: Enhancement of morphine analgesia, tail-flick latency (Test 2); assay type: in vivo, rat
Method: To Wistar rats (10 week aged, male, body weight 250-300 g) was given intraperitoneally morphine at a dose of 0.5 mg/kg, and these rats receiving the morphine were classified into the group of morphine analgesia-effective rats and the group of morphine analgesia-non-effectiverats according to the classification method described in the "Showa Igakukai Zasshi" Vol. 39, No. 5, pages 537-542 (1979). […] The effect of analgesia was evaluated according to the method of tail-flick latency of rats described in the "Showa Igakukai Zasshi" Vol. 39, No. 5, pages 537-542 (1979). The evaluation of pain threshold of rats according to the tail-flick latency method was made as follows: Radiant heat stimulus was applied to the region of the rat tail which positioned 1 cm away from the tail tip and which had been colored black with a black-dye, and the time of latency involved in the tail flick, namely the period of time lapsing between the time of application of the heat stimulus and the time of the reflective flick response of the tail was measured. The quantity of the heat applied was so controlled that the average time of latency of the tail-flick response appearing in the control group of rats (receiving not the test compound but the morphine) was about 2.0 seconds. The tests were accomplished as long as the maximum value for the tail-flick latency was 7.0 seconds or less, as otherwise the skin of the rat tail could be damaged by the application of heat. In other words, if the time for the tail-flick latency was longer than 7.0 seconds, the tests were stopped to prevent the damage of the rat tail. The radiant heat stimulus was repeated 5 times for each test rat at an interval of 15 minutes and the times of latency in the flick response of the tail measured in each test were averaged. In each test, 5 rats were used.
The difference in the time of the tail-flick latency between the test rats (receiving 250 mg/kg of the test compound plus 0.5 mg/kg of morphine) and the control rats (receiving 0.5 mg/kg of morphine alone) was calculated, and the effect for enhancement of morphine analgesia was estimated in term of the value of percentages which were calculated by the following equation: [formula]

ICR-strain mice = details: 2 g/kg intraperitoneally, 6 mice per group
rats = assay: Analgesic activity of test compound administered alone intracisternally, tail-flick latency (Test 3); assay type: in vivo, rat; details: for Analgesic activity (%) (increase in tail-flick latency): no morphine
Method: Analgesic activity was evaluated in term of the value of percentages of increase in the tail-flick latency of the test rats receiving the test compound, as compared to the control rats receiving no test compound.
The test as above was repeated with 2 mcg/kg of naloxone (a specific antogonizer to morphine) being intraperitoneally given into the test rats simultaneously to the intracisternal administration of the bestatin-related compound under test.

[1] = 250 mg/kg test compound i.p. + 0.5 mg/kg morphine i.p., morphine analgesia-non-effective rats, versus 0.5 mg/kg morphine alone

Structure (SMILES)	Inhibitory activity to enkephalinase ID50 (enkephalinase)	Analgesia enhancement (%) (Wistar rats; [1])	also measured
CC(C)C[C@H](NC(=O)[C@@H](O)[C@H](N)Cc1ccccc1)C(=O)O [Compound 1, (2S,3R)-3-amino-2-hydroxy-4-phenylbutanoyl-(S)-leucine]	0.62 milimol	19.5%	–
CC(C)C[C@H](NC(=O)[C@H](O)[C@H](N)Cc1ccccc1)C(=O)O [Compound 2, (2S,3R)-3-amino-2-hydroxy-4-phenylbutanoyl-(R)-leucine]	2.40 milimol	24.9%	–
N[C@H](Cc1ccccc1)[C@H](O)C(=O)N[C@H](CCC(=O)O)C(=O)O [Compound 3, (2S,3R)-3-amino-2-hydroxy-4-phenylbutanoyl-(R)-glutamic]	30.86 milimol	–	–
C[C@H](NC(=O)[C@H](O)[C@H](N)Cc1ccccc1)C(=O)O [Compound 4, (2S,3R)-3-amino-2-hydroxy-4-phenylbutanoyl-(R)-alanine]	5.98 milimol	–	Acute toxicity (survival) (ICR-strain mice): all the mice receiving 2 g/kg of AHPA-D-Ala survived
N=C(N)NCCC[C@H](NC(=O)[C@H](O)[C@H](N)Cc1ccccc1)C(=O)O [Compound 5, (2S,3R)-3-amino-2-hydroxy-4-phenylbutanoyl-(R)-arginine]	0.063 milimol	13.6%	Activity to inhibit enkephalinase in vitro (in words) (enkephalinase; summary statement): high activity to inhibit enkephalinase; Enhancement of the analgesic activity of morphine (in words) (Wistar rats; summary statement): not significantly effective; Analgesic activity (%) (increase in tail-flick latency) (rats; dose 60 mcg intracisternally): 134.0%; Analgesic activity when administered intracisternally in the brain (in words) (rats; summary statement): high analgesic activity
CSCC[C@H](NC(=O)[C@H](O)[C@H](N)Cc1ccccc1)C(=O)O [Compound 6, (2S,3R)-3-amino-2-hydroxy-4-phenylbutanoyl-(R)-methionine]	2.54 milimol	14.7%	–
CSCC[C@H](NC(=O)[C@@H](O)[C@H](N)Cc1ccccc1)C(=O)O [Compound 7, (2S,3R)-3-amino-2-hydroxy-4-phenylbutanoyl-(S)-methionine]	2.78 milimol	10.5%	–
CC(C)C[C@H](NC(=O)[C@@H](O)[C@H](N)Cc1ccc(O)cc1)C(=O)O [Compound 8, (2S,3R)-3-amino-2-hydroxy-4-p-hydroxyphenylbutanoyl-(S)-leucine]	0.37 milimol	34.5%	Analgesic activity (%) (increase in tail-flick latency) (rats; dose 500 mcg intracisternally): 47.0%
CC(C)C[C@H](NC(=O)[C@H](O)[C@H](N)Cc1ccc(O)cc1)C(=O)O [Compound 9, (2S,3R)-3-amino-2-hydroxy-4-p-hydroxyphenylbutanoyl-(R)-leucine]	20.68 milimol	23.1%	–
N[C@H](Cc1ccc(O)cc1)[C@H](O)C(=O)N[C@H](Cc1ccccc1)C(=O)O [Compound 10, (2S,3R)-3-amino-2-hydroxy-4-p-hydroxyphenylbutanoyl-(R)-phenylalanine]	–	27.0%	–
CC(C)C[C@H](NC(=O)[C@@H](O)[C@H](N)Cc1ccccc1)C(=O)N[C@H](CC(C)C)C(=O)O [Compound 11, (2S,3R)-3-amino-2-hydroxy-4-phenylbutanoyl-(S)-leucyl-(R)-leucine]	0.95 milimol	5.2%	–
N[C@H](Cc1ccccc1)[C@H](O)C(=O)NCCC(=O)O [Compound 12, (2S,3R)-3-amino-2-hydroxy-4-phenylbutanoyl-β-alanine]	–	12.0%	–
NC(=O)C[C@H](NC(=O)[C@H](O)[C@H](N)Cc1ccccc1)C(=O)O [Compound 13, (2S,3R)-3-amino-2-hydroxy-4-phenylbutanoyl-(R)-asparagine]	3.12 milimol	–	–
N[C@H](Cc1ccccc1)[C@H](O)C(=O)NCC(=O)O [Compound 14, (2S,3R)-3-amino-2-hydroxy-4-phenylbutanoyl-glycine]	–	19.1%	–
N[C@H](Cc1ccccc1)[C@H](O)C(=O)O [Compound 15, (2S,3R)-3-amino-2-hydroxy-4-phenylbutanoic acid]	–	14.1%	–
CN1CC[C@]23c4c5ccc(O)c4O[C@H]2[C@@H](O)C=C[C@H]3[C@H]1C5 [Morphine, reference compound]	–	–	Analgesia enhancement (%) (Wistar rats; comparative: morphine 0.5 mg/kg alone (control reference)): 0%; Analgesia enhancement (%) (Wistar rats; comparative: morphine 2 mg/kg alone): 28.4%; Analgesia enhancement (%) (Wistar rats; comparative: morphine 3 mg/kg alone): 35.1%
